Reference: ChEMBL document CHEMBL1124131, “Derivatives of 2-methylenepropane-1,3-diol as new antagonists of platelet activating factor” (J Med Chem, 1988)

Key:
Oryctolagus cuniculus = organism: Oryctolagus cuniculus; experiment: Concentration required to reduce 50% of maximum platelet aggregation caused by PAF in platelet rich plasma from rabbit in vitro; assay type: functional
Cavia porcellus = experiment: Tested in vivo for dose required to inhibit PAF-induced bronchoconstriction in guinea pig; assay type: functional
Rattus norvegicus [1] = experiment: Tested in vivo for dose required to inhibit PAF-induced hypotension in rat
Rattus norvegicus [2] = experiment: as above; remark: listed apart in the source

EC50 (Oryctolagus cuniculus)	Compound	ED50 (Cavia porcellus)	ED50 (Rattus norvegicus [1])	ED50 (Rattus norvegicus [2])
0.5 µM	C=C(COC(=O)CCCCC[n+]1ccccc1)COC(=O)NCCCCCCCCCCCCCCCCCC.[Br-]	0.2 mg/kg	0.5 mg/kg	–
0.25 µM	C=C(COC(=O)CCCCCC[n+]1ccsc1)COC(=O)NCCCCCCCCCCCCCCCCCC.[Br-]	0.1 mg/kg	–	0.5 mg/kg
